Literature values as cited in patent publication US20120171270A1, “DUAL ACTION ORGANIC FORMULATION TO CONTROL TWO STAGES OF INSECT PESTS” (priority 2010, published 2012).

Key:
[1] = system: gypsy moth
[2] = system: gypsy moth larvae; settings: 3-day exposure; 13-day evaluation; 2nd instar larvae; red oak leaf disks
[3] = system: gypsy moth larvae
[4] = system: gypsy moth larvae; settings: 16 hours after a 2 minute crawling exposure to glass coated with a 4 mg/litre spinosad solution
[5] = system: mammalian and avian species; settings: in vivo

Compound | mating in low-density populations at lower doses ([1]; 15, 6, and 3 grams per acre) | mating in low-density populations ([1]; 30 grams per acre) | LC50 [2] [mg AI/cm2] | population reduction at low application rate ([3]; application rate of 0.75 mg/litre) | concentrations that effectively controlled larvae ([3]; applied to foliage to run-off, 2nd instar larvae, laboratory and field) [mg/L] | larval population reduction ([3]; at 3 to 50 mg/litre applied to run-off) [%] | toxicity in the laboratory, efficacy and persistence in the field versus permethrin ([3]; in vivo) | treated larvae paralyzed [4] [%] | toxicity to mammalian and avian species [5]
CCCCCCCCCC[C@H]1O[C@H]1CCCCC(C)C [disparlure] | can be suppressed | suppresses mating |  |  |  |  |  |  | 
spinosad |  |  | 0.0015 | large population reductions | 3 ± 50 | 95±100 | comparable to those achieved with permethrin | 50 | little or no toxicity
